Assay [1] addresses T1, CDK2/cyclin A2 (Homo sapiens, UniProt P24941).
T1 construct: purchased Carna Biosciences, Inc. QS S Assist CDK2/Cyclin A2_FP Kit
Put plainly: Human CDK2/cyclin A2 inhibitory activity (QS S Assist CDK2/Cyclin A2_FP Kit, IMAP fluorescent polarization). In kind it is biochemical. Conditions: read-out: CDK2 Activity symbol. The essentials: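 Kit CDK2/cyclin A2 (2.5 ng/well) was reacted with kit ATP/substrate/metal in 20 mM HEPES pH 7.4, 0.01% Tween 20 and 2 mM DTT for 60 min at room temperature. IMAP binding reagent was added for 30 min, then fluorescence polarization was read at 485/535 nm. IC50 came from dose-response fitting of percent inhibition.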

Assay [2] deals with T2, CDK4/cyclin D3 (Homo sapiens, UniProt P11802).
T2 construct: purchased Carna Biosciences, Inc. QS S Assist CDK4/Cyclin D3_FP Kit
T2 sequence (P11802 whole entry): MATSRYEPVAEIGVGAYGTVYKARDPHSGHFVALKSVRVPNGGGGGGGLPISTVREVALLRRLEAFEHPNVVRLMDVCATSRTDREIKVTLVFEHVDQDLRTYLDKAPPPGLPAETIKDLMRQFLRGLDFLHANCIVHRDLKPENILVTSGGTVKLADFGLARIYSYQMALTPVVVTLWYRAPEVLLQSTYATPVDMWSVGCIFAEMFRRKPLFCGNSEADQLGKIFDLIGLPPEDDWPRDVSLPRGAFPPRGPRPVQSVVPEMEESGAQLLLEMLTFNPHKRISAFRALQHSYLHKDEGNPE
T2 sequence (P30281 whole entry partner): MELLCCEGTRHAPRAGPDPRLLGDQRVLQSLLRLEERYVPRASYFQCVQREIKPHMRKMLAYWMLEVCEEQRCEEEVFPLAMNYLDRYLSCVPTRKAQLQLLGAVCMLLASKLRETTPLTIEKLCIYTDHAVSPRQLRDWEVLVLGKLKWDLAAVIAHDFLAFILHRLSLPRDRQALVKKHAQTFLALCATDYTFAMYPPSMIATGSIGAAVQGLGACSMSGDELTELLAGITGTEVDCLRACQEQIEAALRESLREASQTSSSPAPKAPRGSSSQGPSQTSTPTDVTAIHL
Put plainly: Human CDK4/cyclin D3 inhibitory activity (QS S Assist CDK4/Cyclin D3_FP Kit, IMAP fluorescent polarization). In kind it is biochemical. Conditions: read-out: CDK4 Activity symbol. The essentials:
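Kinase reactions used kit CDK4/cyclin D3 at 12.5–25 ng/well with the kit ATP/substrate/metal mix in 20 mM HEPES (pH 7.4), 0.01% Tween20 and 2 mM DTT, run 45 min at room temperature. Phosphorylation was detected by IMAP fluorescence polarization (ex 485/em 535 nm) after 30 min binding in the dark. IC50 was fitted from percent inhibition against DMSO controls with and without enzyme.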

Data on 20 molecules can be found in patent US11084814B2, “Pyrido[3, 4-d]pyrimidine derivative and pharmaceutically acceptable salt thereof” (Teijin Pharma Limited, priority 2016, dated 2021).

As for `C[C@@H](O)c1cc2cnc(Nc3ccc4c(n3)CCN(C(=O)[C@H]3CCCN3)C4)nc2c(N2CCCCC2)n1` [Compound 209], the values for the IC50 in assay [1] and in assay [2] were not below 100 nM and less than 10 nM, respectively.

With `C[C@@H](O)c1cc2cnc(Nc3ccc4c(n3)CCN(C(=O)[C@H]3CCNC3)C4)nc2c(N2CCCCC2)n1` [Compound 210], the IC50 in assay [1] is not below 100 nM; in assay [2], less than 10 nM.

Turning to `C[C@@H](O)c1cc2cnc(Nc3ccc4c(n3)CCN(C(=O)[C@H]3CCCCN3)C4)nc2c(N2CCCCC2)n1` [Compound 211], the IC50 in assay [1] is not below 100 nM; in assay [2] it was less than 10 nM.

With `C[C@@H](O)c1cc2cnc(Nc3ccc4c(n3)CCN(C(=O)[C@H]3C[C@H](O)CN3)C4)nc2c(N2CCCCC2)n1` [Compound 212], the IC50 in assay [1] is not below 100 nM; in assay [2], less than 10 nM.

Turning to `C[C@@H](O)c1cc2cnc(Nc3ccc4c(n3)CCN(C(=O)[C@H]3C[C@@H](O)CN3)C4)nc2c(N2CCCCC2)n1` [Compound 213], the IC50 in assay [1] was not below 100 nM; in assay [2] it was less than 10 nM.

For `C[C@@H](O)c1cc2cnc(Nc3ccc4c(n3)CCN(C(=O)[C@@H]3CCCNC3)C4)nc2c(N2CCCCC2)n1` [Compound 214], the IC50 in assay [1] is not below 100 nM; in assay [2] it was less than 10 nM.

With `C[C@@H](O)c1cc2cnc(Nc3ccc4c(n3)CCN(C(=O)[C@H]3CCN3)C4)nc2c(N2CCCCC2)n1` [Compound 215], the IC50 is not below 100 nM in assay [1] and less than 10 nM in assay [2].

Regarding `C[C@@H](O)c1cc2cnc(Nc3ccc4c(n3)CCN(C(=O)C3CNCCO3)C4)nc2c(N2CCCCC2)n1` (stereo partly shown) [Compound 216], the IC50 is not below 100 nM in assay [1] and less than 10 nM in assay [2].

Turning to `CC(O)c1cc2cnc(Nc3ccc(OC4CCN(CCO)CC4)cn3)nc2c(N2C3CCC2CC3)n1` (stereo not shown) [Compound 218], the values for the IC50 in assay [1] and in assay [2] were not below 100 nM and less than 10 nM, respectively.

As to `C[C@@H](O)c1cc2cnc(Nc3ccc(OC4CCN(CCO)CC4)cn3)nc2c(N2CC[C@@H](F)C2)n1` [Compound 219], the results for the IC50 in assay [1] and in assay [2] were not below 100 nM and less than 10 nM, respectively.

For `C[C@@H](O)c1cc2cnc(Nc3ccc(OC4CCNCC4)cn3)nc2c(N2C3CCC2CC3)n1` [Compound 220], the IC50 was not below 100 nM in assay [1] and less than 10 nM in assay [2].

Regarding `C[C@@H](O)c1cc2cnc(Nc3ccc(OC4CCNCC4)cn3)nc2c(N2CC[C@@H](F)C2)n1` [Compound 221], the IC50 in assay [1] is not below 100 nM; in assay [2], less than 10 nM.

In the case of `C[C@@H](O)c1cc2cnc(Nc3ccc(OC4CCN(CCO)CC4)cn3)nc2c(N2CCC[C@H](F)C2)n1` [Compound 222], the IC50 in assay [1] is not below 100 nM; in assay [2], less than 10 nM.

Take `C[C@@H](O)c1cc2cnc(Nc3ccc4c(n3)CCN(C(=O)[C@@H]3CCCN3C)C4)nc2c(N2C3CCC2CC3)n1` [Compound 223]: the IC50 in assay [1] was not below 100 nM; in assay [2], less than 10 nM.

As for `C[C@@H](O)c1cc2cnc(Nc3ccc4c(n3)CCN(C(=O)[C@H]3CCCN3C)C4)nc2c(N2C3CCC2CC3)n1` [Compound 224], the IC50 was not below 100 nM in assay [1] and less than 10 nM in assay [2].

For `C[C@@H](O)c1cc2cnc(Nc3ccc4c(n3)CCN(C(=O)[C@H]3CCN(C)C3)C4)nc2c(N2C3CCC2CC3)n1` [Compound 225], the IC50 in assay [1] is not below 100 nM; in assay [2] it was less than 10 nM.

With `C[C@@H](O)c1cc2cnc(Nc3ccc4c(n3)CCN(C(=O)[C@@H]3CCN(C)C3)C4)nc2c(N2C3CCC2CC3)n1` [Compound 226], the IC50 in assay [1] is not below 100 nM; in assay [2] it was less than 10 nM.

Turning to `C[C@@H](O)c1cc2cnc(Nc3ccc4c(n3)CCN(C(=O)[C@@H]3C[C@@H](O)CN3C)C4)nc2c(N2C3CCC2CC3)n1` [Compound 227], the IC50 in assay [1] is not below 100 nM; in assay [2] it was less than 10 nM.

For `C[C@@H](O)c1cc2cnc(Nc3ccc4c(n3)CCN(C(=O)CN3CCCC3)C4)nc2c(N2C3CCC2CC3)n1` [Compound 228], the IC50 in assay [1] was not below 100 nM; in assay [2] it was less than 10 nM.

With `C[C@@H](O)c1cc2cnc(Nc3ccc4c(n3)CCN(C(=O)CN3CC(O)C3)C4)nc2c(N2C3CCC2CC3)n1` [Compound 229], the IC50 in assay [1] is not below 100 nM; in assay [2], less than 10 nM.
